Experimental data reported in patent US20250179057A1, “MEK IMMUNE ONCOLOGY INHIBITORS AND THERAPEUTIC USES THEREOF” (Immuneering Corporation, priority 2022, published 2025).
“And” between values parts separate entries of the source, which are not always exact repeats. Identical values can stand only once.

Tested on: phospho-ERK in A549 (KRAS G12S) cells
Experiment: Cell-based pERK (pERK:tERK) in A549 cells
Parameters: A549-pERK 10 uM, 2 h: unit not given here
Conditions: for A549-pERK (10 nM, 2 h): phospho- to total protein ratio normalized to DMSO control (Table 9); for A549-pERK 10 uM, 2 h: phospho- to total protein ratio normalized to DMSO control; for pERK:tERK (10 nM 2 h A549): Phospho-ERK Screen in A549 (KRAS G12S), head 10 nM 2 h, title 10 μM for 2 hours
Experimental: Media components, reagents and buffers for Western Blot: All cell culture media components were obtained from ThermoFisher Scientific. […] Laemmli sample loading 4× buffer (ThermoFisher Scientific, Cat No. NP0007). MOPS/SDS electrophoresis running buffer (GenScript, Cat No. M00138).
Subculture conditions: Adherent cells were grown to approximately 90% confluency, culture medium was aspirated and the cell layer was rinsed with PBS. […] Eight mL media was added, cells were spun down at 1000×g for 5 minutes. Cell pellet was re-suspended in 10 mL media and an appropriate volume was inoculated into a new culture flask.
Compound (drug) treatment: Cells were plated in a 6-well plate at a density of 250,000-300,000 cells/well in 3 mL media and incubated 37° C. in a humidified, 5% CO2 incubator. […] These solutions were added to the cells (3 uL/well), mixed by swirling the plate, and incubated at 37° C. in a humidified, 5% CO2 incubator for 2 hours.
Cell lysis and protein estimation: Cells were washed with PBS, and scraped in 50 μL of lysis buffer containing protease and phosphatase inhibitors. Cell lysates were stored at −20° C. Cell lysates were thawed and spun at 12,000 rpm for one minute, 3 ul of the supernatant was added to 500 μL of Coomassie blue reagent following by 500 μL of water. […] Protein standards were used (0-20 mg/mL) to calculate protein concentrations of test samples.
All samples were heated at 95° C. for 5 minutes, cooled to room temperature and spun down. […] After the run, gel was removed and protein transfer was done using iBlot for 7 minutes, as per manufacturer's recommendations. After the transfer, nitrocellulose membrane was incubated on a shaker in 5 mL of blocking buffer at room temperature for 1 hr. The blot was then incubated overnight on a shaker in 5 ml of blocking buffer containing 0.2% Tween-20 and primary antibody, at room temperature. Anti-phospho-STAT3 antibody was used at a dilution of 1:500, the other 3 primary antibodies were used at a dilution of 1:1000.
Next day, the blot was washed 3 times for 10 min each with 10 mL of TBST followed by incubation on a shaker in 5 ml of blocking buffer containing 0.2% Tween-20 and 0.5 ul of the IRDye labeled secondary antibodies, diluted 1:10000, at room temperature for 1 hr. The blot was then washed 3 times for 10 min each with 10 mL of TBST and dried between sheets of paper towels. Imaging was done using LICOR's Odyssey imaging system, quantitation was done using their software, Image Studio version 3.1.
Materials and Methods: A549 or A375 cells were seeded in 6-well plates at an appropriate seeding density on day 0. On day 2 or 3, after checking the health and confluency of cells, the media was aspirated and replaced with 1 mL media containing a predetermined concentration of compound and incubated for 2 hours. After 2 hours, the media was aspirated, and the cells washed 2 times with cold PBS. Cells were lysed on ice, with 50 uL 1×CST lysis buffer +1 mM PMSF for 5 minutes. After 5 minutes, cells were removed using a scraper and transferred to cold 1.5 mL tubes, and centrifuged for 10 min, 4° C., 14,000×g. Supernatant was gently removed and snap frozen in liquid nitrogen. Protein concentration of the lysate was determined using Bradford Reagent (analyzed using SpectraMax M2E) and diluted to 1 mg/mL or pERK or 1.5 mg/mL for pMEK analysis. […] All dilutions were in Milk-free antibody diluent.
They were grown in T75 flasks in DMEM containing 10% FBS and Pen-Strep. at 37° C. in a humidified, 5% CO2 incubator. The adherent cells were grown to about 90% confluency, culture medium was aspirated, and the cell layer was rinsed with PBS. […] Eight mL media was added, cells were spun down at 1000 g for 5 minutes. Cell pellet was re-suspended in 10 mL media and an appropriate volume was inoculated into a new culture flask. Cells were plated in a 6-well plate at a density of 250,000-300,000 cells/well in 3 mL media and incubated 37° C. in a humidified, 5% CO2 incubator.

| Structure (SMILES) | A549-pERK (10 nM, 2 h) | A549-pERK 10 uM, 2 h | pERK:tERK (10 nM 2 h A549) |
| --- | --- | --- | --- |
| CNS(=O)(=O)Nc1cccc(Cc2c(CNCC(=O)Nc3ccccc3)c3ccc(OC(=O)N(C)C)cc3oc2=O)c1F [Compound 223] | 119 | 3.04 |  |
| CCN1CCN(Cc2c(Cc3cccc(NS(=O)(=O)NC)c3F)c(=O)oc3cc(OC(=O)N(C)C)ccc23)CC1=O [Compound 69] | 101 |  |  |
| CNS(=O)(=O)Nc1nccc(Cc2c(CN3CC(F)(F)C3)c3ccc(OC(=O)N(C)C)cc3oc2=O)c1F [Compound 149] | 69.1 |  |  |
| CNS(=O)(=O)Nc1cccc(Cc2c(CNc3ccn(C)n3)c3ccc(OC(=O)N(C)C)cc3oc2=O)c1F [Compound 89] | 83.7 |  |  |
| CNS(=O)(=O)Nc1cccc(Cc2c(CNc3ccccc3)c3ccc(OC(=O)N(C)C)cc3oc2=O)c1F [Compound 30] | 54.3 |  |  |
| CNS(=O)(=O)Nc1cccc(Cc2c(CN3CCOCC3=O)c3ccc(OC(=O)N(C)C)cc3oc2=O)c1F [Compound 181] | 100 | 22.23 |  |
| CNS(=O)(=O)Nc1cccc(Cc2c(CNc3cn[nH]c3)c3ccc(OC(=O)N(C)C)cc3oc2=O)c1F [Compound 92] | 93.8 |  |  |
| CNS(=O)(=O)Nc1cccc(Cc2c(CNCCCCO)c3ccc(OC(=O)N(C)C)cc3oc2=O)c1F [Compound 71] | 99.4 |  |  |
| CNS(=O)(=O)Nc1cccc(Cc2c(CN3CC(C)(C)C3)c3ccc(OC(=O)N(C)C)cc3oc2=O)c1F [Compound 143] | 104 |  |  |
| CNS(=O)(=O)Nc1cccc(Cc2c(CNCC(=O)O)c3cc(Cl)c(OC(=O)N(C)C)cc3oc2=O)c1F [Compound 133] | 88.1 | 23.41 |  |
| CNS(=O)(=O)Nc1cccc(Cc2c(CNC(=O)C(C)C)c3ccc(OC(=O)N(C)C)cc3oc2=O)c1F [Compound 208] | 105 | 23.64 |  |
| CC(C)CS(=O)(=O)Nc1cccc(Cc2c(CN3CCNCC3)c3cc(Cl)c(OC(=O)N(C)C)cc3oc2=O)c1F [Compound 168] |  |  | 50 (n = 2) and 53 (n = 2) |
| CNS(=O)(=O)Nc1cccc(Cc2c(CNC(C)c3ccccc3)c3ccc(OC(=O)N(C)C)cc3oc2=O)c1F (stereo not shown) [Compound 63] | 88 |  |  |
| CNS(=O)(=O)Nc1cccc(Cc2c(CN3CCN(C(C)C)CC3)c3ccc(OC(=O)N(C)C)cc3oc2=O)c1F [Compound 62] | 73 |  |  |
| CNS(=O)(=O)Nc1cccc(Cc2c(CNc3ccc(OC)nc3)c3ccc(OC(=O)N(C)C)cc3oc2=O)c1F [Compound 193] | 90.7 |  |  |
| CNS(=O)(=O)Nc1cccc(Cc2c(CC(=O)Nc3ccon3)c3ccc(OC(=O)N(C)C)cc3oc2=O)c1F [Compound 201] | 119 |  |  |
| CNS(=O)(=O)Nc1cccc(Cc2c(CN3CC(C)C3)c3ccc(OC(=O)N(C)C)cc3oc2=O)c1F [Compound 142] | 94.6 |  |  |
| C#CCNC(=O)CNCc1c(Cc2cccc(NS(=O)(=O)NC)c2F)c(=O)oc2cc(OC(=O)N(C)C)ccc12 [Compound 218] | 113 | 9.46 |  |
| CNS(=O)(=O)Nc1cccc(Cc2c(CN3CCC4(CN(C)C4)C3)c3ccc(OC(=O)N(C)C)cc3oc2=O)c1F [Compound 159] | 82.7 |  |  |
| CNS(=O)(=O)Nc1cccc(Cc2c(CCNCC3CC3)c3ccc(OC(=O)N(C)C)cc3oc2=O)c1F [Compound 186] | 80.1 | 0.74 |  |
| CNS(=O)(=O)Nc1cccc(Cc2c(CNC(=O)c3c[nH]nn3)c3ccc(OC(=O)N(C)C)cc3oc2=O)c1F [Compound 211] | 121 | 70.75 |  |
| CNS(=O)(=O)Nc1cccc(Cc2c(CNC(N)=O)c3ccc(OC(=O)N(C)C)cc3oc2=O)c1F [Compound 105] |  | 7.39 |  |

| Structure (SMILES) | A549-pERK (10 nM, 2 h) | A549-pERK 10 uM, 2 h | pERK:tERK (10 nM 2 h A549) |
| --- | --- | --- | --- |
| CNS(=O)(=O)Nc1cccc(Cc2c(CN(C)C)c3ccc(Oc4ncccn4)cc3oc2=O)c1F [Compound 129] | 92.2 |  |  |
| CNS(=O)(=O)Nc1cccc(Cc2c(CC(=O)N(C)CC#N)c3ccc(OC(=O)N(C)C)cc3oc2=O)c1F [Compound 198] | 109 |  |  |
| CNS(=O)(=O)Nc1cccc(Cc2c(CN3CCN(C4CC4)CC3)c3ccc(OC(=O)N(C)C)cc3oc2=O)c1F [Compound 64] | 73 |  |  |
| CNS(=O)(=O)Nc1cccc(Cc2c(CN(C)c3cccc(Cl)c3)c3ccc(OC(=O)N(C)C)cc3oc2=O)c1F [Compound 95] | 80.2 |  |  |
| CNC1CN(Cc2c(Cc3cccc(NS(=O)(=O)NC)c3F)c(=O)oc3cc(OC(=O)N(C)C)ccc23)C1 [Compound 164] | 102 |  |  |
| CNS(=O)(=O)Nc1cccc(Cc2c(CN3CCN(S(C)(=O)=O)CC3)c3ccc(OC(=O)N(C)C)cc3oc2=O)c1F [Compound 68] | 68.9 |  |  |
| CNS(=O)(=O)Nc1cccc(Cc2c(CN(C)c3ccccc3Cl)c3ccc(OC(=O)N(C)C)cc3oc2=O)c1F [Compound 99] | 98.9 |  |  |
| CNS(=O)(=O)Nc1cccc(Cc2c(CN3CCN(Cc4ccccc4)CC3)c3ccc(OC(=O)N(C)C)cc3oc2=O)c1F [Compound 16] | 91.6 |  |  |
| CCN(C)Cc1c(Cc2cccc(NS(=O)(=O)NC)c2F)c(=O)oc2cc(OC(=O)N(C)C)c(F)cc12 [Compound 261, 4-((ethyl(methyl)amino)methyl)-6-fluoro-3-(2-fluoro-3-((N-methylsulfamoyl)amino)benzyl)-2-oxo-2H-chromen-7-yl dimethylcarbamate] |  |  | 68 |
| CNS(=O)(=O)Nc1cccc(Cc2c(CNCc3ccncc3)c3ccc(OC(=O)N(C)C)cc3oc2=O)c1F [Compound 29] | 96 |  |  |
| CNS(=O)(=O)Nc1cccc(Cc2c(CNCC(=O)N(C)C)c3ccc(OC(=O)N(C)C)cc3oc2=O)c1F [Compound 57] | 106 and 119 | 7.33 |  |
| CNS(=O)(=O)Nc1cccc(Cc2c(CNCCN(C)C)c3ccc(OC(=O)N(C)C)cc3oc2=O)c1F [Compound 58] | 98.7 and 108 |  |  |
| CNS(=O)(=O)Nc1cccc(Cc2c(CN3CC(Cl)C3)c3ccc(OC(=O)N(C)C)cc3oc2=O)c1F [Compound 145] | 104 |  |  |
| CN(C)C(=O)Oc1ccc2c(CN3CCC3)c(Cc3ccnc(NS(=O)(=O)C4CC4)c3F)c(=O)oc2c1 [Compound 155] | 84.9 |  |  |
| CNS(=O)(=O)Nc1cccc(Cc2c(CNCc3ccco3)c3ccc(OC(=O)N(C)C)cc3oc2=O)c1F [Compound 56] | 92.9 |  |  |
| CNS(=O)(=O)Nc1cccc(Cc2c(CC(=O)Nc3ccn[nH]3)c3ccc(OC(=O)N(C)C)cc3oc2=O)c1F [Compound 202] | 119 |  |  |
| CNS(=O)(=O)Nc1cccc(Cc2c(CN3CC(N(C)C)C3)c3ccc(OC(=O)N(C)C)cc3oc2=O)c1F [Compound 154] | 64 |  |  |
| CNS(=O)(=O)Nc1cccc(Cc2c(CN3CC(N)C3)c3ccc(OC(=O)N(C)C)cc3oc2=O)c1F [Compound 165] | 104 |  |  |
| CNS(=O)(=O)Nc1cccc(Cc2c(CN3CC(C#N)C3)c3ccc(OC(=O)N(C)C)cc3oc2=O)c1F [Compound 172] | 111 |  |  |
| CNS(=O)(=O)Nc1cccc(Cc2c(CNC(=O)C(C)(C)O)c3ccc(OC(=O)N(C)C)cc3oc2=O)c1F [Compound 212] | 100 | 13.03 |  |
| CNS(=O)(=O)Nc1cccc(Cc2c(CNc3ccn[nH]3)c3ccc(OC(=O)N(C)C)cc3oc2=O)c1F [Compound 31] | 66.7 |  |  |
